Data set [1] deals with T1, Catechol-O-Methyltransferase (COMT) (Sus scrofa, UniProt D3K5L3). The data set is described as follows: biochemical. Format: biochemical, pig.
Data set [2] deals with T1, Catechol-O-Methyltransferase (COMT). Conditions: read-out: Positive Control Expected IC50 (historical), COMT; historical value; cited from earlier work.
Data set [3] has as its target PDE7A (Homo sapiens (Human), UniProt Q13946). The data set is described as follows: PDE7 phosphodiesterase scintillation proximity assay (SPA), PDE7A. Format: biochemical.
The target in data set [4] is PDE7B (Homo sapiens (Human), UniProt Q9NP56). Kind of data set: PDE7 phosphodiesterase scintillation proximity assay (SPA), PDE7B. Format: biochemical.
Data set [5] is described as follows: plasma and brain concentration in mice after intraperitoneal injection (LC/MS/MS). Format: in vivo, mouse. Conditions: mouse, at 0.5 mg/kg, analogous calculation. How it is done: Adult male C57BL/6J; retired breeders, aged between 7-9 months (Jackson Laboratory, Bar Harbor, Me., USA), singly housed.
Just prior to the harvesting of tissues, mice were anesthetized with avertin. Samples of whole brain or plasma were collected from three animals per time point at 15 minutes, 30 minutes, 60 minutes, 120 minutes, and 240 minutes after injection. Blood samples were collected by retro-orbital bleeding. Plasma was prepared and red cells were removed by centrifugation. The mice were perfused with saline to remove contaminating blood. The brains were removed and rapidly frozen in liquid nitrogen for subsequent analysis. The plasma and brain samples were stored at −80° C. or on dry ice and the concentration of compound was determined by LC/MS/MS analysis as follows:
Whole brain tissue was homogenized using a Mini-Beaddeater-8™ (BioSpec Products, Bartlesville, Okla.). Plasma or homogenized brain samples were precipitated with acetonitrile and filtered in 96-well format using Captiva 0.20 micron filtration plates (Varian Corp, Lake Forest, Calif.). Filtrates were evaporated under nitrogen to dryness at 50° C. and were then reconstituted for LC-MS analysis.
Quantitative measurements for inhibitory compound in plasma and brain samples were obtained using a Thermo Ultra triple quadrupole mass spectrometer (Thermo Fisher Scientific, San Jose, Calif.), utilizing electrospray ionization in the multiple reaction monitoring mode of data acquisition. Sample extracts were injected onto a 2.1×30 mm packed Xterra C18-MS high pressure liquid chromatography (HPLC) column (Waters Corp, Milford, Mass.). The mobile phase eluting the compound from the HPLC column was applied using a Thermo Surveyor MS Plus HPLC quaternary pumping system (Thermo Fisher Scientific, San Jose, Calif.) and a HTC PAL autoinjector (LEAP Technologies, Chapel Hill, N.C.).

Data set [6] concerns MPTP-treated mice. The data set is described as follows: inked paw stride length in the MPTP mouse model of Parkinson's disease, panel of PDE7 inhibitors (Example 7). Format: in vivo. Conditions: 20 minutes after dose. The protocol: Adult male C57BL/6J; retired breeders, aged between 7-9 months Charles River Laboratories, Wilmington, Mass.), singly housed. Three groups of 35 mice were tested in series one week apart.
Mice received 2 subcutaneous injections of methylphenyltetrahydropyridine (“MPTP”) at a dose of 15 mg/kg (free base) with a 10-12 hour interval between injections. Control mice (sham lesion groups) were administered saline instead of MPTP.
Prior to injection with MPTP or saline, animals were pre-trained to walk across a clean sheet of paper into their home cage without stopping. For assessment of stride length, animals had their forepaws placed in black ink and the length of forepaw steps during normal walking (in a straight line only) was measured. The animals were immediately put back into their home cage upon completion of the task. Stride length was determined by measuring the distance between each step on the same side of the body, measuring from the middle toe of the first step to the heel of the second step. An average of at least four clear steps was calculated. The schedule for this experiment was as follows:
Because of the wide variation in aqueous solubility among these compounds, a number of different formulations were required. L-dopa was administered in 100 μl of phosphate buffered saline. For animals treated with L-dopa, the dopa decarboxylase inhibitor benserazide (100 μL of a 12.5 mg/kg solution) was administered 15 minutes prior to treatment with L-dopa in order to minimize the destruction of L-dopa in the peripheral blood. […] Therefore, the treatment effects observed are due solely to the PDE7 inhibitory compounds themselves. […] This phenomenon of “overshoot” has also been observed with L-dopa in MPTP-treated mice in which lower doses ameliorate hypoactivity while higher doses induce dyskinesias or uncontrolled movements (Lundblad M. et al., Exp Neurol.194(1):66-75 (2005); Pearce R. K. et al., Mov Disord. 10(6):731-40 (1995); Fredriksson, A. et al, Pharmacol-Toxicol. 67(4): 295-301 (1990)).
Retired breeder male mice were treated with either saline or 2×15 mg/kg MPTP to induce a Parkinsonian state (neurochemical loss of dopamine with corresponding behavioral deficits). On day one baseline stride length was measured and then mice were treated with either MPTP or with saline as a control. On day eight stride length was measured again, and the control value for stride length was derived from the stride length of saline-treated animals. The animals were then divided randomly into treatment groups. Compound OM955 (compound 3) was tested at 0.1 mg/kg, at 0.5 mg/kg, and at 0.1 mg/kg in combination with 1 mg/kg L-dopa.

For data set [7], the target named is T2, Tyrosine Hydroxylase (Rattus norvegicus (Rat), UniProt P04177). Kind of data set: Tyrosine Hydroxylase enzyme assay. In kind it is biochemical. The following applies: read-out: Positive Control Observed IC50, Tyrosine Hydroxylase. How it is done:
Tyrosine Hydroxylase was assayed as described in Roskoski, R., Jr., et al., J. Biochem 218:363-370 (1993) with the following modifications. Tyrosine Hydroxylase was isolated from Wistar rat brain. The substrate was 100 μM L-[3,5-^3H]Tyrosine+L-Tyrosine. The vehicle control was 1% DMSO. Compound OM69 was tested at 10 μM in incubation buffer (125 mM MES, pH 6.0, 0.5 mg/ml Catalase, 12.5 mM DTT, 0.5 mM (6R)-5,6,7,8-Tetrahydrobiopterin). The reaction was pre-incubated for 15 minutes at 37° C. Tyrosine Hydroxylase enzyme was added, and the reaction was incubated for 20 minutes at 37° C. [^3H]-H20 was quantitated.

The target in data set [8] is T2, Tyrosine Hydroxylase. Conditions: historical value; read-out: Positive Control Expected IC50 (historical), Tyrosine Hydroxylase; cited from earlier work.

Entries after “also recorded” stand apart in the source; their conditions may differ. Read-outs that look alike come from different tables or passages of the source.

Chain of PDE7B (Q9NP56 107-450 limits assumed): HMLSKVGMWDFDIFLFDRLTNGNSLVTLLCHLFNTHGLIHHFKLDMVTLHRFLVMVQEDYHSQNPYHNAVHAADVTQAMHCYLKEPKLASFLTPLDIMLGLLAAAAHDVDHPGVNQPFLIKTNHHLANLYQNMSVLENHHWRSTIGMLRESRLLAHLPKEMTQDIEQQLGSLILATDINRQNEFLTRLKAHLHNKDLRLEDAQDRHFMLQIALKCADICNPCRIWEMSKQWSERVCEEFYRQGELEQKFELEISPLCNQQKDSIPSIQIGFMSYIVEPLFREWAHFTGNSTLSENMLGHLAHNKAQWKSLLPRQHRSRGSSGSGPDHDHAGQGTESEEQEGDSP
T1 sequence (D3K5L3 1-270): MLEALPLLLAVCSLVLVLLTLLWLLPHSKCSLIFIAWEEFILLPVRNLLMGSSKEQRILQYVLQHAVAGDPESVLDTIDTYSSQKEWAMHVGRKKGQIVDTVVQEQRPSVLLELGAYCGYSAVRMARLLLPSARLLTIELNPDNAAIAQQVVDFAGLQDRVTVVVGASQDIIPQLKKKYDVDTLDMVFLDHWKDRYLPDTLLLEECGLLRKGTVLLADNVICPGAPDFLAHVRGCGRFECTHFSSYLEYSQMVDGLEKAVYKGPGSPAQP
Chain of PDE7A (Q13946 whole entry, looked up): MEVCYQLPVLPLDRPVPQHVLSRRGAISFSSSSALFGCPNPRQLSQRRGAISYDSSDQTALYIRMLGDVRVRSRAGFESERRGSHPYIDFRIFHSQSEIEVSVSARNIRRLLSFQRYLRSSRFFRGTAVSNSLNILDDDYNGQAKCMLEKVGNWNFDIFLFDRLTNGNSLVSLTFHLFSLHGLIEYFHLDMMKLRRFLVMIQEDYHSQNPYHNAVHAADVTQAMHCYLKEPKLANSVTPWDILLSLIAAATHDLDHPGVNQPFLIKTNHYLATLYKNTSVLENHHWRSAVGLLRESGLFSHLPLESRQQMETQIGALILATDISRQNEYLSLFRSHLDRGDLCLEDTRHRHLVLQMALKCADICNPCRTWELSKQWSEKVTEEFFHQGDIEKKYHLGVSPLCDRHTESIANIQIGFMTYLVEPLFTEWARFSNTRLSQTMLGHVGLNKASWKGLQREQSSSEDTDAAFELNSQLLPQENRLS
T2 sequence (P04177 whole entry): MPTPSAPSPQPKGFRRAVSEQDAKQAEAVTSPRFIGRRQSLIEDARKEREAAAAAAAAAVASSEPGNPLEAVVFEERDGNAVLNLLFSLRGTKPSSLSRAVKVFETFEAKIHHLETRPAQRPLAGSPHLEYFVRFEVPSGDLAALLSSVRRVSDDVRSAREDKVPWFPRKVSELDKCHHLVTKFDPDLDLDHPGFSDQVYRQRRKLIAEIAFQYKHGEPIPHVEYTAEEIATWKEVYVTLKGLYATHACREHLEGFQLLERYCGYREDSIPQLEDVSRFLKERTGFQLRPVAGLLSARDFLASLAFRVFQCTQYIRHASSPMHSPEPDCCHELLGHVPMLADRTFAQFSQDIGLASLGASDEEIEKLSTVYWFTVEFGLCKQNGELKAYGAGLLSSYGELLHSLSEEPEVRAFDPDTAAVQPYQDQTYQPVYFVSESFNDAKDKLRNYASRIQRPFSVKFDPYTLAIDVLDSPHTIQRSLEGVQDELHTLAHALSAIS

On to `O=[N+]([O-])c1cc(O)c(O)c([N+](=O)[O-])c1` [3,5-Dinitrocatechol, reference compound], for which the values for the half-inhibitory concentration (IC50) in data set [1] and in data set [2] were 606 nM and 310 nM, respectively.
Consider `COc1cc(N)ccc1-c1nc2c(C)nn(C3CCCCC3)c2c(=O)[nH]1` [OM056], for which the “potency of PDE7A inhibition, in words” value in data set [3] is reported as “high potency”. Besides, the “potency of PDE7B inhibition, in words” value in data set [4] was “high potency”. Also, half-maximal inhibition in data set [4] (unit inferred) (IC50) required 9.27 nM. In addition, the “maximal brain concentration at dose where efficacy was observed” value in data set [5] is 358 nM. Also, the “effect on stride length, in words” value in data set [6] (OM056 0.05 mg/kg) is listed as “statistically significant increase; also recorded: full recovery of baseline stride length”.
In the case of `CC(=O)Nc1ccc(-c2nn(C)/c(=N/C3CCCCC3)s2)cc1` [OM956], the “potency of PDE7A inhibition, in words” value in data set [3] is reported as “moderate potency”. Moreover, the “potency of PDE7B inhibition, in words” value in data set [4] is given as “moderate potency”. Also, in data set [5], the “maximal brain concentration at dose where efficacy was observed” value is reported as 5260 nM. The “effect on stride length, in words” value in data set [6] (OM956 0.5 mg/kg) is reported as “statistically significant increase; also recorded: full recovery of baseline stride length”.
With `C[C@](N)(Cc1ccc(O)cc1)C(=O)O` [α-Methyl-L-P-Tyrosine, reference compound], the IC50 in data set [7] was 20200 nM; in data set [8] it was 20000 nM.

Source of the values: patent US8637528B2, “Use of PDE7 inhibitors for the treatment of movement disorders” (Omeros Corporation, priority 2007, dated 2014).
